These are literature values, as cited in US20060058387A1, “Composition and method for treating skin conditions” (priority 2004, published 2006).

One data set has as its system interstitial cystitis. The note with it: bladder instillations of a 50% aqueous solution.
The conditions of data set [1]: children, dosage intakes of 200-800 mg/kg.

Sulphinyl-bis-methane [DMSO]: in the data set with interstitial cystitis, the “effect on symptoms of interstitial cystitis” value is reported as “appear to alleviate symptoms”.
`C[N+](C)(C)CC(O)CC(=O)[O-]` (stereo not drawn) [carnitin, γ-Trimethyl-β-hydroxybutyrobetain]: the side effects entry in data set [1] is “No side effects were observed”.
For `CC1=C(/C=C/C(C)=C/C=C/C(C)=C/C(=O)O)C(C)(C)CCC1` [tretinoin, all-trans retinoic acid], for the setting “in vivo”, the “binding to plasma proteins” value is “highly bound” and the terminal elimination half-life is 30 to 120 min. Further, the oral bioavailability entry (oral) is on record as “about 50%”. Further, where the note is “oral administration”, the “time to peak plasma concentrations” value is 1 to 2 h.
